Seven compounds from US5041423A, “Antibiotics of the mureidomycin group, their preparation, and their therapeutic use” (Sankyo Company, Limited, priority 1987, dated 1991) can be followed below.

A short description of series [1]: Solubility (physico-chemical properties).
The test system of series [2] is Pseudomonas aeruginosa SANK 70579. Nature of the series: Growth inhibition test of derivatives. The series is classed as cell-based.
Series [3] concerns Pseudomonas aeruginosa NCTC 10490. Nature of the series: MIC by agar dilution method, Mueller-Hinton agar. Type of series: cell-based. As for the experimental part: (§1) The minimal inhibitory concentrations (MIC) of mureidomycins E and F against various Gram-positive and Gram-negative bacteria were determined by the agar dilution method, using a Mueller-Hinton agar medium (produced by Difco).
Background: In agar dilution the substance is mixed into plates at graded concentrations.

Series [4] concerns Pseudomonas aeruginosa SANK 75175. Briefly: MIC by agar dilution method, Mueller-Hinton agar. The series is classed as cell-based. The protocol:
as §1

Series [5] deals with Staphylococcus aureus FDA 209P JC-1. Nature of the series: MIC by agar dilution method, Mueller-Hinton agar. Type of series: cell-based. The protocol:
as §1

The test system of series [6] is Proteus mirabilis SANK 70461. Nature of the series: MIC by agar dilution method, Mueller-Hinton agar. The series is classed as cell-based. As for the experimental part: as §1
For series [7], the system named is Pseudomonas aeruginosa SANK 70579. Nature of the series: MIC by agar dilution method, Mueller-Hinton agar. Type of series: cell-based. The protocol:
as §1

Series [8] deals with Pseudomonas aeruginosa SANK 75775. Nature of the series: MIC by agar dilution method, Mueller-Hinton agar. The series is classed as cell-based. As for the experimental part: as §1
The test system of series [9] is Pseudomonas aeruginosa NRRL B1000. Briefly: MIC by agar dilution method, Mueller-Hinton agar. Type of series: cell-based. As for the experimental part: as §1
Series [10] has as its system Escherichia coli NIHJ JC-2. Nature of the series: MIC by agar dilution method, Mueller-Hinton agar. Type of series: cell-based. As for the experimental part:
as §1

The subject of series [11] is Pseudomonas aeruginosa SANK 70970. Nature of the series: MIC by agar dilution method, Mueller-Hinton agar. Type of series: cell-based. The protocol:
as §1

The subject of series [12] is Serratia marcescens SANK 73060. Nature of the series: MIC by agar dilution method, Mueller-Hinton agar. The series is classed as cell-based. The protocol:
as §1

Series [13] has as its system Pseudomonas aeruginosa ATCC 13388. Nature of the series: MIC by agar dilution method, Mueller-Hinton agar. Type of series: cell-based. The protocol:
as §1

A short description of series [14]: Toxicity in mice after intravenous administration. Type of series: in vivo. Particulars: intravenously 400 mg/kg.

≈ marks a conversion by molar mass, not a printed value.

For `CSCC[C@H](NC(=O)NC(Cc1cccc(O)c1)C(=O)O)C(=O)N[C@@H](C(=O)NC=C1CC(O)C(n2ccc(=O)[nH]c2=O)O1)C(C)N(C)C(=O)[C@@H](N)Cc1cccc(O)c1` (some centres unmarked) [Mureidomycin A, reference compound], in [1], the Solubility in acetone result is “slightly soluble”, the Solubility in benzene entry is recorded as “insoluble”, the Solubility in chloroform entry was “insoluble” and the “Solubility in ethyl acetate” value is “insoluble”. For the same compound, in series [1], the Solubility in methanol result was “Soluble” and the Solubility in water result was “Soluble”.
Take methylmureidomycin F: in series [2], the inhibition of growth result is recorded as “inhibit the growth”. For the same compound, the Solubility in water result in [1] is “soluble”.
In the same order, the values of methylmureidomycin E are “inhibit the growth” and “soluble”.
For orientation: MIC means the lowest concentration found to suppress growth. Read a low MIC as a more susceptible organism. `CSCC[C@@H](NC(=O)N[C@@H](Cc1cccc(O)c1)C(=O)O)C(=O)N[C@@H](C(=O)N/C=C1/C[C@@H](O)[C@H](n2ccc(=O)[nH]c2=O)O1)[C@@H](C)N(C)C(=O)[C@H]1Cc2cc(O)ccc2CN1` [Mureidomycin F]: the MIC in series [3] was 0.8 µg/mL (≈ 0.938 µM); in series [4], 50 µg/mL (≈ 58.6 µM); in series [5], over 200 µg/mL; in series [6] it was over 200 µg/mL; in series [7], 1.56 µg/mL (≈ 1.83 µM); in series [8] it was 25 µg/mL (≈ 29.3 µM). The MIC is 3.13 µg/mL (≈ 3.67 µM) in [9]; over 200 µg/mL in [10]; 100 µg/mL (≈ 117 µM) in series [11]; over 200 µg/mL in series [12]; 3.13 µg/mL (≈ 3.67 µM) in [13]. Also, in series [1], the Solubility in acetone result is on record as “slightly soluble”. Further, the Solubility in benzene result in series [1] is recorded as “insoluble”. Further, the Solubility in chloroform result in [1] is “insoluble”. In addition, the “Solubility in ethyl acetate” value in series [1] is given as “insoluble”. For the same compound, the Solubility in methanol result in [1] is reported as “Soluble”. Further, the Solubility in water entry in [1] is on record as “Soluble”. In series [14], the toxicity result is on record as “No toxicity was observed”.
Consider phenylmureidomycin F, for which the inhibition of growth result in series [2] is “inhibit the growth”. The Solubility in water entry in series [1] is on record as “soluble”.
With `CSCC[C@@H](NC(=O)N[C@H](Cc1cccc(O)c1)C(=O)O)C(=O)N[C@H](C(=O)N/C=C1/C[C@H](O)[C@@H](n2ccc(=O)[nH]c2=O)O1)[C@H](C)N(C)C(=O)[C@H]1Cc2cccc(O)c2CN1` [Mureidomycin E], the minimal inhibitory concentration (MIC) in series [3] was under 0.4 µg/mL; in [4] it was 25 µg/mL (≈ 29.3 µM); in series [5], over 200 µg/mL; in series [6], over 200 µg/mL; in series [7], under 0.4 µg/mL; in series [8], 6.25 µg/mL (≈ 7.33 µM). Further, the minimal inhibitory concentration (MIC) is 25 µg/mL (≈ 29.3 µM) in series [9]; over 200 µg/mL in series [10]; 25 µg/mL (≈ 29.3 µM) in series [11]; over 200 µg/mL in series [12]; 25 µg/mL (≈ 29.3 µM) in series [13]. Further, the Solubility in acetone result in series [1] is given as “slightly soluble”. In addition, in series [1], the Solubility in benzene entry is listed as “insoluble”. Also, the Solubility in chloroform entry in series [1] was “insoluble”. For the same compound, the “Solubility in ethyl acetate” value in series [1] was “insoluble”. For the same compound, the Solubility in methanol entry in [1] was “Soluble”. Also, in series [1], the Solubility in water result is “Soluble”. Moreover, the toxicity entry in [14] is recorded as “No toxicity was observed”.
As for phenylmureidomycin E, the inhibition of growth result in series [2] is “inhibit the growth”. Besides, in series [1], the Solubility in water entry was “soluble”.
